Holding throughout (format): biochemical
In one test the target is T1, human Lck enzyme (Homo sapiens, UniProt P06239).
T1 construct: purchased Carna Biosciences, Inc. 08-170
Put plainly: Lck enzyme inhibitory activity (time-resolved fluorometry, biotinylated peptide phosphorylation). The following applies: read-out: LCK_IC50. The protocol: (§1) 3. Lck Enzyme Inhibitory Activity Lck inhibitory activity was determined based on activity of inhibiting phosphorylation reaction of a biotinylated peptide (EGPWLEEEEEAYGWMDF) using a human Lck enzyme (manufactured by Carna Biosciences, Inc., cat 08-170). The phosphorylated biotinylated peptide was detected by time-resolved fluorometry using an anti-phosphorylated tyrosine antibody conjugated to europium cryptate, and streptavidin conjugated to XL665, an allophycocyanin derivative. The 50% inhibitory concentration (IC50) was calculated from the inhibition rate relative to the control group without containing the test substance.

In another test the target is T2, human Yes1 enzyme (Homo sapiens, UniProt P07947).
T2 construct: made in house
Briefly: Yes1 enzyme inhibitory activity (time-resolved fluorometry, biotinylated peptide phosphorylation). The following applies: read-out: YES_IC50. Here is the method:
as §1, with “1. Yes1” for “3. Lck”, “Yes1” for “Lck”, “prepared using a baculovirus expression system.” for “(manufactured by Carna Biosciences, Inc., cat 08-170).”

The target of the next test is T3, human Src enzyme (Homo sapiens, UniProt P12931).
T3 construct: purchased Carna Biosciences, Inc. 08-173
Put plainly: Src enzyme inhibitory activity (time-resolved fluorometry, biotinylated peptide phosphorylation). The following applies: biotinylated peptide phosphorylation, read-out: SRC_IC50. The protocol: as §1, with “2. Src” for “3. Lck”, “Src” for “Lck”, “08-173).” for “08-170).”

The mark [1] stands for this setting: biotinylated peptide phosphorylation.

IC50 data for 20 compounds are collected here from patent US10479780B2, “Aminopyrazole derivatives” (Chugai Seiyaku Kabushiki Kaisha, priority 2015, dated 2019).

Like-named read-outs stand apart in the source and are kept apart here.

T1 sequence (P06239 whole entry): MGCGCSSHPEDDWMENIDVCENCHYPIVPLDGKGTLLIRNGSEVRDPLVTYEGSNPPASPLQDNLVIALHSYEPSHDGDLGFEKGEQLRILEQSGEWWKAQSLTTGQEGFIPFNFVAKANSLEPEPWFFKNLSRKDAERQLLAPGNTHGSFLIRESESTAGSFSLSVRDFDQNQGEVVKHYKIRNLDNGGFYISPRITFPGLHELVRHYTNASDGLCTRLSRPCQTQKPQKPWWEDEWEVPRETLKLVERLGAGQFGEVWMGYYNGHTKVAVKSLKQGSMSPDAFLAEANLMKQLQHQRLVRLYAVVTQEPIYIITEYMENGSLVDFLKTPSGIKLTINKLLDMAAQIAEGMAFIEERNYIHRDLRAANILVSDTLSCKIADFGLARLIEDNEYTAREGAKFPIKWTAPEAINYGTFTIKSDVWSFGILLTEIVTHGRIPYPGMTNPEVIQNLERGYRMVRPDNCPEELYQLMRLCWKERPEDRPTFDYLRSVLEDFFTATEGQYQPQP
T2 sequence (P07947 whole entry): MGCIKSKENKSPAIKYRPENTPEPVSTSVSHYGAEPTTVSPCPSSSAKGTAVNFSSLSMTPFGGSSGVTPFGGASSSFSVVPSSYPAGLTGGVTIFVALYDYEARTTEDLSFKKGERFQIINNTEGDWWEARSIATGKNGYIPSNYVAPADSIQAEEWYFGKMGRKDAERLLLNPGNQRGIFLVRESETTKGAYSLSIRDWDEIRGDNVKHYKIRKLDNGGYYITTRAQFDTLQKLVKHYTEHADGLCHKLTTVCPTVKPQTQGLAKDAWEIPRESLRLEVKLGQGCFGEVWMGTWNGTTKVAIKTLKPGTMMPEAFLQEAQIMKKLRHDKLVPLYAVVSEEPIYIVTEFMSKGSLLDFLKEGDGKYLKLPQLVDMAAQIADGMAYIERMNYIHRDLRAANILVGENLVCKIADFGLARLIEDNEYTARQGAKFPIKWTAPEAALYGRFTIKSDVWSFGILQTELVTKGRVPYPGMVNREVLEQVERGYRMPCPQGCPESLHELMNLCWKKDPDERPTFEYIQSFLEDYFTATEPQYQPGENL
T3 sequence (P12931 whole entry): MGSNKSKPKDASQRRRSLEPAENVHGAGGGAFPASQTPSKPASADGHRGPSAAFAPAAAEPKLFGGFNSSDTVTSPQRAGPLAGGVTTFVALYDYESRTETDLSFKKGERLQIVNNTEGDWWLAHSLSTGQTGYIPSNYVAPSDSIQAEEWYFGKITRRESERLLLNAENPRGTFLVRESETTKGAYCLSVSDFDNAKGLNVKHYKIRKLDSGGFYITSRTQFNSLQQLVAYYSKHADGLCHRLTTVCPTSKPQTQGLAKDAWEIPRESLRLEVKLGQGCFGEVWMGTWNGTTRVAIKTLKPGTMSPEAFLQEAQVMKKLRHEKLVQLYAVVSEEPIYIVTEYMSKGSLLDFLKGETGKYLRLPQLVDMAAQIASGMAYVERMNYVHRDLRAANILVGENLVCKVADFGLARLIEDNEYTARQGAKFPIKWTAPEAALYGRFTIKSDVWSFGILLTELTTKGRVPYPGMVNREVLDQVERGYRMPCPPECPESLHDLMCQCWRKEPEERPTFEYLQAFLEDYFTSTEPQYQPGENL

As for `Cc1cc(Oc2ccccc2F)cc(F)c1-n1ncc(C(=O)c2cc3cc(OCC(F)F)c(NC4CN(S(C)(=O)=O)C4)cc3[nH]2)c1N` [Example 4-23-027, [5-amino-1-[2-fluoro-4-(2-fluorophenoxy)-6-methylphenyl]pyrazol-4-yl]-[5-(2,2-difluoroethoxy)-6-[(1-methylsulfonylazetidin-3-yl)amino]-1H-indol-2-yl]methanone], the IC50 at human Lck enzyme (setting [1]) turned out to be 7.6 nM; on human Yes1 enzyme (setting [1]), 1.9 nM; on human Src enzyme it was 16 nM.

As to `Cc1cc(-n2ncc(C(=O)c3cc4cc(F)c(NS(C)(=O)=O)cc4[nH]3)c2N)cnc1Oc1cccc(F)c1F` [Example 5-1-044, N-[2-[5-amino-1-[6-(2,3-difluorophenoxy)-5-methylpyridin-3-yl]pyrazole-4-carbonyl]-5-fluoro-1H-indol-6-yl]methanesulfonamide], the figures for the IC50 at human Lck enzyme and at human Yes1 enzyme were 2700 nM and 52 nM, respectively.

With `Cc1cc(-n2ncc(C(=O)c3cc4cc(C)c(N5C(=O)NC6(CCN(C(=O)OC(C)(C)C)CC6)C5=O)cc4[nH]3)c2N)ccc1Oc1ccccc1F` [Example 5-1-471, tert-Butyl 3-[2-[5-amino-1-[4-(2-fluorophenoxy)-3-methylphenyl]pyrazole-4-carbonyl]-5-methyl-1H-indol-6-yl]-2,4-dioxo-1,3,8-triazaspiro[4.5]decane-8-carboxylate], the IC50 at human Lck enzyme (setting [1]) was found to be 980 nM; at human Yes1 enzyme (setting [1]), 81 nM. For the compound `Cc1cc(-n2ncc(C(=O)c3cc4cc(F)c(NS(C)(=O)=O)cc4[nH]3)c2N)cnc1Oc1c(F)cccc1Cl` [Example 5-1-043, N-[2-[5-amino-1-[6-(2-chloro-6-fluorophenoxy)-5-methylpyridin-3-yl]pyrazole-4-carbonyl]-5-fluoro-1H-indol-6-yl] methanesulfonamide], the IC50 on human Lck enzyme amounted to 2600 nM; at human Yes1 enzyme it was 38 nM. Take `Cc1cc(-n2ncc(C(=O)c3cc4cc(F)c(NS(=O)(=O)C5CCOCC5)cc4[nH]3)c2N)ccc1Oc1ccccc1F` [Example 5-1-493, N-[2-[5-amino-1-[4-(2-fluorophenoxy)-3-methylphenyl]pyrazole-4-carbonyl]-5-fluoro-1H-indol-6-yl]oxane-4-sulfonamide]: the IC50 at human Lck enzyme (setting [1]) amounted to 3000 nM; at human Yes1 enzyme (setting [1]), 5.3 nM.

On to `Cc1cc(-n2ncc(C(=O)c3cc4cc(OC5CCN(C6CS(=O)(=O)C6)CC5)c(-c5ccccc5C)cc4[nH]3)c2N)ccc1Oc1ccccc1F` [Example 5-1-336, [5-amino-1-[4-(2-fluorophenoxy)-3-methylphenyl]pyrazol-4-yl]-[5-[1-(1,1-dioxothietan-3-yl)piperidin-4-yl]oxy-6-(2-methylphenyl)-1H-indol-2-yl]methanone], for which the IC50 on human Lck enzyme came to 240 nM; on human Yes1 enzyme, 4.2 nM. The like results for `Cc1cc(-n2ncc(C(=O)c3cc4cc(OC5CCN(C6CS(=O)(=O)C6)CC5)c(-c5ccccc5Cl)cc4[nH]3)c2N)ccc1Oc1ccccc1F` [Example 5-1-289, [5-amino-1-[4-(2-fluorophenoxy)-3-methylphenyl]pyrazol-4-yl]-[6-(2-chlorophenyl)-5-[1-(1,1-dioxothietan-3-yl)piperidin-4-yl]oxy-1H-indol-2-yl]methanone] were, in that order, 400 nM and 3.4 nM.

As for `Cc1cc2cc(C(=O)c3cnn(-c4cc(C)c(Oc5ccccc5F)cc4F)c3N)[nH]c2cc1NS(C)(=O)=O` [Example 5-1-206, N-[2-[5-amino-1-[2-fluoro-4-(2-fluorophenoxy)-5-methylphenyl]pyrazole-4-carbonyl]-5-methyl-1H-indol-6-yl]methanesulfonamide], the IC50 at human Yes1 enzyme came out at 9.1 nM.

On to `Cc1cc(-n2ncc(C(=O)c3cc4cc(F)c(NS(C)(=O)=O)cc4[nH]3)c2N)cnc1Oc1cccc(Cl)c1` [Example 5-1-042, N-[2-[5-amino-1-[6-(3-chlorophenoxy)-5-methylpyridin-3-yl]pyrazole-4-carbonyl]-5-fluoro-1H-indol-6-yl]methanesulfonamide], for which the IC50 on human Lck enzyme turned out to be 1900 nM; at human Yes1 enzyme, 270 nM. Take `Cc1cc(-n2ncc(C(=O)c3cc4cc(OCC(F)F)c(-c5cccs5)cc4[nH]3)c2N)ccc1Oc1ccccc1F` [Example 5-1-256, [5-amino-1-[4-(2-fluorophenoxy)-3-methylphenyl]pyrazol-4-yl]-[5-(2,2-difluoroethoxy)-6-thiophen-2-yl-1H-indol-2-yl] methanone]: the IC50 at human Yes1 enzyme came to 120 nM. As for `Cc1cc(-n2ncc(C(=O)c3cc4cc(OC5CCN(C6CS(=O)(=O)C6)CC5)c(-c5ccccc5C(F)(F)F)cc4[nH]3)c2N)ccc1Oc1ccccc1F` [Example 5-1-386, (5-amino-1-(4-(2-fluorophenoxy)-3-methylphenyl)-1H-pyrazol-4-yl)(5-((1-(1,1-dioxidothietan-3-yl)piperidin-4-yl)oxy)-6-(2-(trifluoromethyl)phenyl)-1H-indol-2-yl)methanone], the values for the IC50 on human Lck enzyme and on human Yes1 enzyme were 1000 nM and 3.9 nM, respectively. The like results for `Cc1cc(-n2ncc(C(=O)c3cc4cc(F)c(NS(C)(=O)=O)cc4[nH]3)c2N)cnc1Oc1ccccc1Cl` [Example 5-1-041, N-[2-[5-amino-1-[6-(2-chlorophenoxy)-5-methylpyridin-3-yl]pyrazole-4-carbonyl]-5-fluoro-1H-indol-6-yl]methanesulfonamide] were, in that order, 2000 nM and 93 nM. On the same counts, the results for `Cc1cc(-n2ncc(C(=O)c3cc4cc(F)c(NS(C)(=O)=O)cc4[nH]3)c2N)cnc1Oc1cc(F)cc(F)c1` [Example 5-1-045, N-[2-[5-amino-1-[6-(3,5-difluorophenoxy)-5-methylpyridin-3-yl]pyrazole-4-carbonyl]-5-fluoro-1H-indol-6-yl]methanesulfonamide] are 4400 nM and 210 nM. Turning to `Cc1cc(-n2ncc(C(=O)c3cc4cc(C)c(N5C(=O)NC6(CCCCC6)C5=O)cc4[nH]3)c2N)ccc1Oc1ccccc1F` [Example 5-1-470, 3-[2-[5-amino-1-[4-(2-fluorophenoxy)-3-methylphenyl]pyrazole-4-carbonyl]-5-methyl-1H-indol-6-yl]-1,3-diazaspiro[4.5]decane-2,4-dione], the results for the IC50 at human Lck enzyme (setting [1]) and on human Yes1 enzyme (setting [1]) were 870 nM and 31 nM, respectively. In the case of `Cc1cc2cc(C(=O)c3cnn(-c4ccc(Oc5cccc(F)c5)c(C)c4)c3N)[nH]c2cc1NS(C)(=O)=O` [Example 5-1-211, N-[2-[5-amino-1-[4-(3-fluorophenoxy)-3-methylphenyl]pyrazole-4-carbonyl]-5-methyl-1H-indol-6-yl]methanesulfonamide], the IC50 at human Lck enzyme is 4400 nM; on human Yes1 enzyme it was 26 nM. As for `Cc1cc2cc(C(=O)c3cnn(-c4ccc(Oc5ccccc5F)c(C)c4)c3N)[nH]c2cc1NS(C)(=O)=O` [Example 5-1-307, N-[2-[5-amino-1-[4-(2-fluorophenoxy)-3-methylphenyl]pyrazole-4-carbonyl]-5-methyl-1H-indol-6-yl]methanesulfonamide], the figures for the IC50 on human Lck enzyme and on human Yes1 enzyme were 720 nM and 26 nM, respectively. The like results for `Cc1cc(-n2ncc(C(=O)c3cc4cc(OC(F)F)c(Br)cc4[nH]3)c2N)ccc1Oc1ccccc1F` [Example 5-1-152, [5-amino-1-[4-(2-fluorophenoxy)-3-methylphenyl]pyrazol-4-yl]-[6-bromo-5-(difluoromethoxy)-1H-indol-2-yl]methanone] were, in that order, 7800 nM and 7.3 nM. For the compound `Cc1cc(-n2ncc(C(=O)c3cc4cc(OCC(F)F)c(Br)cc4[nH]3)c2N)ccc1Oc1ccccc1F` [Example 5-1-150, [5-amino-1-[4-(2-fluorophenoxy)-3-methylphenyl]pyrazol-4-yl]-[6-bromo-5-(2,2-difluoroethoxy)-1H-indol-2-yl]methanone], the IC50 came out at 320 nM on human Lck enzyme and 4.8 nM at human Yes1 enzyme.

Regarding `Cc1cc(-n2ncc(C(=O)c3cc4cc(C)c(N5C(=O)NC(C)(C(F)(F)F)C5=O)cc4[nH]3)c2N)ccc1Oc1ccccc1F` (stereo not drawn) [Example 5-1-472, 3-[2-[5-amino-1-[4-(2-fluorophenoxy)-3-methylphenyl]pyrazole-4-carbonyl]-5-methyl-1H-indol-6-yl]-5-methyl-5-(trifluoromethyl) imidazolidine-2,4-dione], the IC50 on human Lck enzyme (setting [1]) amounted to 710 nM; on human Yes1 enzyme (setting [1]), 40 nM. The like results for `Cc1cc(-n2ncc(C(=O)c3cc4cc(C)c(N5C(=O)NC6(CCCC6)C5=O)cc4[nH]3)c2N)ccc1Oc1ccccc1F` [Example 5-1-474, 3-[2-[5-amino-1-[4-(2-fluorophenoxy)-3-methylphenyl]pyrazole-4-carbonyl]-5-methyl-1H-indol-6-yl]-1,3-diazaspiro[4.4]nonane-2,4-dione] were, in that order, 650 nM and 27 nM.
